Results from patent publication US11912682B2, “Isoindolinone compounds” (Monte Rosa Therapeutics, Inc., priority 2021, dated 2024).
Where two headings read alike, the source gives them in different places.

Key:
GSPT1 [1] = target: T1, GSPT1 (Homo sapiens (Human), UniProt P15170+Q96SW2); test: immunofluorescence assay for GSPT1 degradation in CAL-51 cells (Example 10); type: cell-based
Procedure, shortened: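 CAL-51 cells fixed in formalin, immunostained overnight at 4 °C for GSPT1 and imaged by high-content microscopy. Cells segmented from DAPI and actin channels. DC50 from GSPT1 signal normalized to controls by non-linear regression.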
Target sequence in this assay (P15170 whole entry): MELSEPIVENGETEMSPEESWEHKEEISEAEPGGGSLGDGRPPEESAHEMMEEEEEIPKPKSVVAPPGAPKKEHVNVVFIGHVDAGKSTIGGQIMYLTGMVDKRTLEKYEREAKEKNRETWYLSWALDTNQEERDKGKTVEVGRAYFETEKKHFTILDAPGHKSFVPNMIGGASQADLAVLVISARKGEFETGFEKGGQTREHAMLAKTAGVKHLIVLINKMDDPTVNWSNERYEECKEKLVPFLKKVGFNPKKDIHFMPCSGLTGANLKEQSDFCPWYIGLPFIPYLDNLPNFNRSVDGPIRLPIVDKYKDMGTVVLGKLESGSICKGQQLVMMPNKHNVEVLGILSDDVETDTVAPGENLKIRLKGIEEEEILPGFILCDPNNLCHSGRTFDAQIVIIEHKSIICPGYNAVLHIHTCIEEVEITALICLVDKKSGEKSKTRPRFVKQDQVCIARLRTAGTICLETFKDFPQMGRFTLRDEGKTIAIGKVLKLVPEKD
Target sequence in this assay (Q96SW2 whole entry): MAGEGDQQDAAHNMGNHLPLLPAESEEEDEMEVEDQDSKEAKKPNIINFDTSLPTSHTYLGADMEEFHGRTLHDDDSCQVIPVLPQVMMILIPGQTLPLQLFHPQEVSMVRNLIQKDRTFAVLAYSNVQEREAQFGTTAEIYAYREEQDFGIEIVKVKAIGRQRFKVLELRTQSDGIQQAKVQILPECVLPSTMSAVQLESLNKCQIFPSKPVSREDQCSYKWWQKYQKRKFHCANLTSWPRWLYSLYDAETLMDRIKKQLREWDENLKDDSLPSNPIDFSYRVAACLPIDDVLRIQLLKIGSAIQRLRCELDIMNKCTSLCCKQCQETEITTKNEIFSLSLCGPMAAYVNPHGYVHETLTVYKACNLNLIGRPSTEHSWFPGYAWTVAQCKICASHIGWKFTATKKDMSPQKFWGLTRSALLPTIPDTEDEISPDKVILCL
Target sequence in this assay (Q16531 2-1140 partner): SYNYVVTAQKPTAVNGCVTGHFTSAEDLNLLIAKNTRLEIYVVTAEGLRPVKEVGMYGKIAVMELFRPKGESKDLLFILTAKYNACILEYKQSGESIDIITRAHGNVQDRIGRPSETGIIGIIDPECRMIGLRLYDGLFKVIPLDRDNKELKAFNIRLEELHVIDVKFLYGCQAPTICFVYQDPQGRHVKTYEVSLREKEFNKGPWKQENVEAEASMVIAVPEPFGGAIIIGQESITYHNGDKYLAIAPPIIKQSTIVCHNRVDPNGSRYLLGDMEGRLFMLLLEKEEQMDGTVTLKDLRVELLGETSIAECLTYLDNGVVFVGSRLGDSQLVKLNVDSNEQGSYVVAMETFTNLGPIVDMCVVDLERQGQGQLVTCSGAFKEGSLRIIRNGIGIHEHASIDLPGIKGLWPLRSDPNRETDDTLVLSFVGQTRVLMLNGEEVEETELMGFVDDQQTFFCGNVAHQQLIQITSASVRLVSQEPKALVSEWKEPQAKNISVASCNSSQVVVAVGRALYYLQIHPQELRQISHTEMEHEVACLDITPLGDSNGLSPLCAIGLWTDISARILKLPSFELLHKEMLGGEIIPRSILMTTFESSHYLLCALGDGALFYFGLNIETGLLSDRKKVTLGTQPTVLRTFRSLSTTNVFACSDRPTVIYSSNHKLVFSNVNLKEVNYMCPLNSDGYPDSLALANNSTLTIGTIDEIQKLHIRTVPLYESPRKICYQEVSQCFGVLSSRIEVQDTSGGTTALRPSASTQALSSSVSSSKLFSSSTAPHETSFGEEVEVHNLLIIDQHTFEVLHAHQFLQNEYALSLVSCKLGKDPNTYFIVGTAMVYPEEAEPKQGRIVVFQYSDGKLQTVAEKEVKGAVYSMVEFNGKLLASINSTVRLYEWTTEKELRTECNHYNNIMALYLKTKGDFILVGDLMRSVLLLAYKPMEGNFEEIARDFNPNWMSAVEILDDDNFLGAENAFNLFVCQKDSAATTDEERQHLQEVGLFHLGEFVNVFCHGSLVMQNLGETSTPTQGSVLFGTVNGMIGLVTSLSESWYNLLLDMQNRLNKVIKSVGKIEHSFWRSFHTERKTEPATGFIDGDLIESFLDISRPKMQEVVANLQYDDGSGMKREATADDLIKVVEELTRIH

CRBN-DDB1 = CRBN-DDB1 (Homo sapiens (Human), UniProt Q96SW2); test: Homogenous Time-Resolved Fluorescence (HTRF) binding assay to CRBN
Experimental: Compound activity was monitored in a Homogenous Time-Resolved Fluorescence (HTRF) assay using 1-[5-({2-[2-(2-{[2-(2,6-dioxopiperidin-3-yl)-1,3-dioxo-2,3-dihydro-1H-isoindol-4-yl]oxy}acetamido)ethoxy]ethyl}carbamoyl)pentyl]-3,3-dimethyl-2-[(1E,3E)-5-[(2E)-1,3,3-trimethyl-5-sulfo-2,3-dihydro-1H-indol-2-ylidene]penta-1,3-dien-1-yl]-3H-indol-1-ium-5-sulfonate as a fluorescent probe. […] Compounds were stored in dry, ambient temperatures at 10 mM. A 10-point, 1:3 dilution series was prepared from 10 mM stock concentrations in Echo-compatible LDV plates. 10 nL of each compound dilution series was dispensed into assays wells using an Echo 650 (Labcyte inc. USA). […] The assay was then allowed to incubate for 30 min at ambient temperature after transferring compound. […] Analysis and IC50 values were derived using KNIME analytics (KNIME Zurich) transformation and fitting within Collaborative Drug Discovery (Collaborative Drug Discovery USA). Ki was derived from the geometric mean of the IC50 values using the Cheng-Prustoff transformation.

IKZF1 (Ikaros) = IKZF1 (Ikaros) (Homo sapiens (Human), UniProt Q13422); test: selectivity by Western blot in MM1S cells, IKZF1; type: cell-based; parameters: key to IKZF1 degradation: A represents a no degradation observed at 30 μM; B represents trace degradation at 30 μM (below 20%); C represents weak degradation at 30 μM (below 50%); D represents degradation at 30 μM (>90%); E represents degradation at 3 μM (>90%); F represents degradation at 0.3 μM (>90%); details: MM1S cells, 6 hours, 0.3, 3 and 30 μM
Experimental: (§1) MM1S cells were purchased from ATCC (cat. Number CRL-2974), sub-cultured in 90% RPMI 1640 with 10% FBS, supplemented with 1× P/S and incubated at 37° C., 5% CO2. Compounds were stored as 10 mM DMSO stock. For the assay, MM1S cells (3 million cells/well) were plated in 6-well plates and incubated over night. Cells were treated with respective compounds using a serial dilution: 0.3 μM, 3 μM and 30 μM as well as a vehicle only (DMSO) control for 6 hours. Media with suspension cells was subsequently transferred to 15 mL conical tubes, wells rinsed twice with ice-cold PBS and merged with cell suspension in respective 15 mL conical tube. Cells were spinned down, supernatant aspirated, pellets resuspended in ice-cold PBS and transferred to microtubes. Cells were spinned down, supernatant aspirated and pellets resuspended in 120 μL RIPA lysis buffer supplemented with protease and phosphatase inhibitors. Cell lysates were incubated on ice for 20 minutes followed by centrifugation at >20,000 xg for 5 min. Supernatants were transferred to fresh microtubes and stored at −80° C. Total protein concentration was determined using a BCA assay with a BSA standard curve and concentration of all samples was adjusted to 1 mg/mL. 25 μL 4× LDS sample buffer supplemented with 100 mM DTT was added to 75 μL sample. Samples were centrifuged (8,000 xg, 1 min) and incubated at 95° C. for 5 min followed by another centrifugation step (8,000 xg, 1 min). 20 μL of each sample was loaded on a 4-12% gel alongside a protein molecular weight marker. Gels were run in the presence of MOPS buffer at 80 Volts for 30 min, followed by 120 Volts for 1.5 h and proteins subsequently transferred onto nitrocellulose membranes at 20 Volts for 7 min using an iBlot2 Gel Transfer Device. Membranes were then cut horizontally into two pieces, covering 80-50 kDa and 50-25 kDa. Blocking the membranes was performed by gently shaking in 5% (w/v) skim milk in TSB-T for 1 hr at room temperature. All primary antibodies were used at a 1/1000 in 5% (w/v) BSA dissolved in TBST and incubated with membranes over night at 4° C. Anti-IKZF1 (Ikaros; D6N9Y; 14859S), anti-IKZF3 (Aiolos; D1C1E; 15103S) antibodies were purchased from Cell Signalling Technology, anti-ZFP91 antibody from Bethyl laboratories, anti-GSPT1 from Sigma Aldrich (HPA052488) and anti CK1alpha from AbCam (ab206652). After three washes with 1× TBST for 5 min, HRP-coupled secondary antibodies diluted in 5% (w/v) BSA/TBST (Goat Anti-Rb IgG, dil. 1/10,000; Goat Anti-Mouse IgG, dil. 1/5000) were added for 1 hr at room temperature. After three washes with 1× TBST (5 minutes each), membranes were incubated with ECL reagent for 1 min at room temperature. Chemiluminescence signals were then detected using a LAS-4000 system with default settings and signals quantified using Image Studio Lite software (version 5.2). Membrane parts previously incubated with antibody against CK1alpha were stripped off antibodies by incubating with stripping buffer for 30 minutes followed by three washed with TBST (5 min each), blocking with 5% (w/v) skim milk for 1 hr, and incubation with primary antibody against GAPDH overnight at 4° C. Subsequent washes, incubation with secondary antibody and signal acquisition were performed as described above.

ZFP91 = ZFP91 (Homo sapiens (Human), UniProt Q96JP5); test: selectivity by Western blot in MM1S cells, ZFP91; type: cell-based; parameters: key: A represents a no degradation observed at 30 μM; B represents trace degradation at 30 μM (below 20%); C represents weak degradation at 30 μM (below 50%); D represents degradation at 30 μM (>90%); E represents degradation at 3 μM (>90%); F represents degradation at 0.3 μM (>90%); details: 6 hours, 0.3, 3 and 30 μM
Experimental: as §1, with “After three washes with 1× TBST (5 minutes each), membranes were incubated with ECL reagent for 1 min at room temperature.” left out, “Membrane parts previously incubated with antibody against CK1alpha were stripped off antibodies by incubating with stripping buffer for 30 minutes followed by three washed with TBST (5 min each), blocking with 5% (w/v) skim milk for 1 hr, and incubation with primary antibody against GAPDH overnight at 4° C. Subsequent washes, incubation with secondary antibody and signal acquisition were performed as described above.” left out

CK1alpha = CK1alpha (Homo sapiens (Human), UniProt P48729); test: selectivity by Western blot in MM1S cells, CK1alpha; type: cell-based; details: MM1S cells, 6 hours, 0.3, 3 and 30 μM
Experimental: as §1

IKZF3 (Aiolos) = IKZF3 (Aiolos) (Homo sapiens (Human), UniProt Q9UKT9); test: selectivity by Western blot in MM1S cells, IKZF3; type: cell-based; parameters: key to IKZF3 degradation: A represents a no degradation observed at 30 μM; B represents trace degradation at 30 μM (below 20%); C represents weak degradation at 30 μM (below 50%); D represents degradation at 30 μM (>90%); E represents degradation at 3 μM (>90%); F represents degradation at 0.3 μM (>90%); details: MM1S cells, 6 hours, 0.3, 3 and 30 μM
Experimental: as §1

GSPT1 [2] = target: T1, GSPT1; test: selectivity by Western blot in MM1S cells, GSPT1; type: cell-based; details: MM1S cells, 6 hours, 0.3, 3 and 30 μM
Experimental: as §1
Target sequence in this assay (P15170 whole entry, looked up): as the sequence (P15170 whole entry) above
Target sequence in this assay (Q96SW2 whole entry, looked up): as the sequence (Q96SW2 whole entry) above
Target sequence in this assay (Q16531 whole entry partner, looked up): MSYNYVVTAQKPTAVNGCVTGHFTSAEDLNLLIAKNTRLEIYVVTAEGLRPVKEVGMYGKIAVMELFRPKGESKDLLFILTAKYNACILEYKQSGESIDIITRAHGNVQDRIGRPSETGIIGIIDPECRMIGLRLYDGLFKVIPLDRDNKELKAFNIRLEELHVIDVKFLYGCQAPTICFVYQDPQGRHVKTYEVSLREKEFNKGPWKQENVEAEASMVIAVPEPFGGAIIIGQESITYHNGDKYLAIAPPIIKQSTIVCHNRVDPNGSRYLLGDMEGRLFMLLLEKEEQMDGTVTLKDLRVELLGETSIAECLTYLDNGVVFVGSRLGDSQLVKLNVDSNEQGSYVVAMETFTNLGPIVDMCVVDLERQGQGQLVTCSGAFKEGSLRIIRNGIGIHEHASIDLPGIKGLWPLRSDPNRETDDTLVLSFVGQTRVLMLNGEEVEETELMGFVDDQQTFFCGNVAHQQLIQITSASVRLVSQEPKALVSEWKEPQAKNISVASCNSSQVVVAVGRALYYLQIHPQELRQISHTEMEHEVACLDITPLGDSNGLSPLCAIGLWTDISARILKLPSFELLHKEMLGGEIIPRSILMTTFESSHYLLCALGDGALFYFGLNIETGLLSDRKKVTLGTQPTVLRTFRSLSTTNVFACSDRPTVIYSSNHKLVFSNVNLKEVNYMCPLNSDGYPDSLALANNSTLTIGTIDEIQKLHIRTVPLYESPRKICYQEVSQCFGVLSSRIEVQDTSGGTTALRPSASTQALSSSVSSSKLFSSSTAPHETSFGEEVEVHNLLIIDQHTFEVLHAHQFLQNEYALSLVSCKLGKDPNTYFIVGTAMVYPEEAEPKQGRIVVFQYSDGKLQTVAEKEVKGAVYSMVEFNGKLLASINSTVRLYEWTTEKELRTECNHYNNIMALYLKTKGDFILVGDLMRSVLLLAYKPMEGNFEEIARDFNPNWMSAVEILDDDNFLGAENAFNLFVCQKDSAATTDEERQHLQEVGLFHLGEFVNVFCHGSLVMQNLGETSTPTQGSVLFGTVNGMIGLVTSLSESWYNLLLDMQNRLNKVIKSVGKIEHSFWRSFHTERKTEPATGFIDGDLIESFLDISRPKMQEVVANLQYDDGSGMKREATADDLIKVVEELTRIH

GSPT1 [3] = target: T1, GSPT1; test: immunofluorescence assay for GSPT1 degradation in CAL-51 cells (Example 4); type: cell-based
Procedure, shortened: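 CAL-51 cells on fibronectin-coated plates were treated 6 h with serial dilutions (30 μM to 0.1 nM), then fixed and immunostained for GSPT1 with DAPI and phalloidin counterstains. Per-cell mean GSPT1 intensity from high-content imaging, normalized to controls; DC50 by non-linear regression.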
Target sequence in this assay (P15170 whole entry): as the sequence (P15170 whole entry) above
Target sequence in this assay (Q96SW2 whole entry): as the sequence (Q96SW2 whole entry) above
Target sequence in this assay (Q16531 2-1140 partner): as the sequence (Q16531 2-1140 partner) above

[4] = CAL-51 cells, 6 h; read-out: IF Class (GSPT1 degradation DC50)
[5] = CRBN-DDB1, HTRF, read-out: HTRF Class (HTRF IC50, Cereblon binding)
[6] = 6 hours, read-out: Activity for GSPT1 degradation, Code (DC50)
[7] = GSPT1 degradation, read-out: DC50 value

Chain of IKZF1 (Ikaros) (Q13422 whole entry, looked up): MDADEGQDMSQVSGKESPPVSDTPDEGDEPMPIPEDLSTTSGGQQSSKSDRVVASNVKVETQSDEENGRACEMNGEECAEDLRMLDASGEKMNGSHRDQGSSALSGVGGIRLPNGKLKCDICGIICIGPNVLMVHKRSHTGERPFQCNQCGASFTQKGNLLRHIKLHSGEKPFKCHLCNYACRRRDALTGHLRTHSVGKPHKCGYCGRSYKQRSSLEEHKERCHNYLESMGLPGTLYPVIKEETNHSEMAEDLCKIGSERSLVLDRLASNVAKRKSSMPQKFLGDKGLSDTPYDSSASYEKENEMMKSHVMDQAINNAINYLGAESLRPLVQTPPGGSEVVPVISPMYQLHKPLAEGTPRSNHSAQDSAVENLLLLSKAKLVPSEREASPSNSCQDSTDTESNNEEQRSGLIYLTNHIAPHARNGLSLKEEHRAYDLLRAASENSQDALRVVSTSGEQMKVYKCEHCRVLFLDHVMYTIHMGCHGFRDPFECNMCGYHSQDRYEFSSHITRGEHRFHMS
Chain of ZFP91 (Q96JP5 whole entry, looked up): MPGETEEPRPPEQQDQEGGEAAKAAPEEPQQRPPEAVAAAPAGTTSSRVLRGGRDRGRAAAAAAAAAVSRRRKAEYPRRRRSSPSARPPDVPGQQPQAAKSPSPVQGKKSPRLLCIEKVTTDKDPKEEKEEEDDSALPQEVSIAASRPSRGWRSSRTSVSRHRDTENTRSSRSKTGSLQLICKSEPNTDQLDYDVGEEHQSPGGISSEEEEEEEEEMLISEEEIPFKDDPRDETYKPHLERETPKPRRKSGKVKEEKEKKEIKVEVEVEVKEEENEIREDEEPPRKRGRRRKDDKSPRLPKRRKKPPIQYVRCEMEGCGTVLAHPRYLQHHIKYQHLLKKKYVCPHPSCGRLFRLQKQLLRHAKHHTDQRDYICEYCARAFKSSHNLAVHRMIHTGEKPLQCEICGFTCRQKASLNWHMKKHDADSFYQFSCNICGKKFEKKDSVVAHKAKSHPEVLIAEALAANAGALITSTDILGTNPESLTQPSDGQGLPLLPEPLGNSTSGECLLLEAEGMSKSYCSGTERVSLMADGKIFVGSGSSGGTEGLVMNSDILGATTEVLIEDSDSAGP
Chain of CRBN-DDB1 (Q96SW2 whole entry): as the sequence (Q96SW2 whole entry) above
Chain of CRBN-DDB1 (Q16531 whole entry partner): as the sequence (Q16531 whole entry partner, looked up) above
Chain of CK1alpha (P48729 whole entry, looked up): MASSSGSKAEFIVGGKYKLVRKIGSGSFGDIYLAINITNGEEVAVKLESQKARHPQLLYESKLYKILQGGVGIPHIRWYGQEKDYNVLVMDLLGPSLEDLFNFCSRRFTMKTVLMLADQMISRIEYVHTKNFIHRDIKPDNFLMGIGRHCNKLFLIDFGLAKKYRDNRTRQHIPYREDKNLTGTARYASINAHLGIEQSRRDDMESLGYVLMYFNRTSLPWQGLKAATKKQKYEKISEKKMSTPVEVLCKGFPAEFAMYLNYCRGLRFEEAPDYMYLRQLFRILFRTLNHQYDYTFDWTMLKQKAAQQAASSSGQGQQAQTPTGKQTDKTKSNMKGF

Row | DC50 (GSPT1 [1]; [4]) [nM] | IC50 (CRBN-DDB1; [5]) [nM] | IKZF1 degradation (IKZF1 (Ikaros)) | IKZF3 degradation (IKZF3 (Aiolos)) | DC50 (GSPT1 [3]; [6]) [nM] | DC50 (GSPT1 [3]; [7]) [nM] | SMILES | ZFP91 degradation (ZFP91) | CK1alpha degradation (CK1alpha) | GSPT1 degradation (GSPT1 [2]) | DC50 (GSPT1 [1]; read-out: IF Class (GSPT1 degradation DC50); CAL-51 cells, 6 h) [nM] | IC50 (CRBN-DDB1) [nM]
1 | < 30 | > 1000 | – | – | – | – | Cc1ccc(NC(=O)OCc2ccc3c(c2)C(=O)N([C@H]2CCC(=O)NC2=O)C3)cc1Cl (single isomer, unassigned) [Compound 175] | – | – | – | – | –
2 | < 30 | < 100 | – | – | – | – | Cc1ccc(NC(=O)OCc2ccc3c(c2)C(=O)N([C@@H]2CCC(=O)NC2=O)C3)cc1Cl (single isomer, unassigned) [Compound 176] | – | – | – | – | –
3 | – | – | A | A | < 30 | ≤ 30 | O=C1CCC(N2Cc3ccc(COC(=O)Nc4cccc(OC(F)(F)F)c4)cc3C2=O)C(=O)N1 (stereo not shown) [Compound 3] | B (B represents trace degradation at 30 μM (below 20%)) | B (B represents trace degradation at 30 μM (below 20%)) | F (F represents degradation at 0.3 μM (>90%)) | – | –
4 | – | – | A | A | < 30 | ≤ 30 | CC(C)(C)c1ccc(NC(=O)OCc2ccc3c(c2)C(=O)N(C2CCC(=O)NC2=O)C3)cc1 (stereo not shown) [Compound 47] | B (B represents trace degradation at 30 μM (below 20%)) | B (B represents trace degradation at 30 μM (below 20%)) | F (F represents degradation at 0.3 μM (>90%)) | – | –
5 | – | – | A | A | < 30 | ≤ 30 | CCc1ncc(NC(=O)OCc2ccc3c(c2)C(=O)N(C2CCC(=O)NC2=O)C3)cc1C (stereo not shown) [Compound 49] | B (B represents trace degradation at 30 μM (below 20%)) | B (B represents trace degradation at 30 μM (below 20%)) | F (F represents degradation at 0.3 μM (>90%)) | – | –
6 | – | – | – | – | – | – | COc1ccc(C(F)(F)C23CC(NC(=O)OCc4ccc5c(c4)C(=O)N(C4CCC(=O)NC4=O)C5)(C2)C3)cc1 (stereo not shown) [Compound 214, (2-(2,6-dioxopiperidin-3-yl)-3-oxoisoindolin-5-yl)methyl(3-(difluoro(4-methoxyphenyl)methyl)bicyclo[1.1.1]pentan-1-yl)carbamate] | – | – | – | 30 to 300 | < 100

Row | SMILES | DC50 (GSPT1 [1]; [4]) [nM] | IC50 (CRBN-DDB1; [5]) [nM] | IKZF1 degradation (IKZF1 (Ikaros)) | IKZF3 degradation (IKZF3 (Aiolos)) | DC50 (GSPT1 [3]; [6]) [nM] | DC50 (GSPT1 [3]; [7]) [nM] | ZFP91 degradation (ZFP91) | CK1alpha degradation (CK1alpha) | GSPT1 degradation (GSPT1 [2]) | DC50 (GSPT1 [1]; read-out: IF Class (GSPT1 degradation DC50); CAL-51 cells, 6 h) [nM] | IC50 (CRBN-DDB1) [nM]
7 | COc1cc(C)c(Cl)cc1NC(=O)OCc1ccc2c(c1)C(=O)N(C1CCC(=O)NC1=O)C2 (stereo not shown) [Compound 1] | – | – | A | B (B represents trace degradation at 30 μM (below 20%)) | < 30 | ≤ 30 | A | B (B represents trace degradation at 30 μM (below 20%)) | F (F represents degradation at 0.3 μM (>90%)) | – | –
8 | Cc1c(Cl)cc(NC(=O)OCc2ccc3c(c2)C(=O)N(C2CCC(=O)NC2=O)C3)cc1OCCN1CCOCC1 (stereo not shown) [Compound 48] | – | – | A | B (B represents trace degradation at 30 μM (below 20%)) | < 30 | ≤ 30 | – | B (B represents trace degradation at 30 μM (below 20%)) | F (F represents degradation at 0.3 μM (>90%)) | – | –
